≈ marks a conversion by molar mass, not a printed value. Where two headings read alike, the source gives them in different places. One block for each molecule: values may come before it.
Tests used:
[1] = molecular target: T1, human motilin receptor (Homo sapiens, UniProt O43193); settings: HEK293 cells expressing human motilin receptor; as reported in Anal. Biochemistry; read-out: Motilin Agonist EC50; cited from earlier work
T1 construct: expressed in transfected cells; host or cells: HEK293

[2] = molecular target: T1, human motilin receptor; experiment: Motilin agonist potency (cell based assay); settings: HEK293 cells expressing human motilin receptor
Experimental: The motilin agonist potency of compound I-b was evaluated in a cell based assay, according to the procedure disclosed in Carreras et al., Anal. Biochemistry, 300, 146-151 (2002), the disclosure of which is incorporated herein by reference. Briefly, in this method HEK293 cells are transformed with a synthetic gene for the human motilin receptor. Expression of the synthetic gene produces the human motilin receptor; then the activation of the receptor by the binding of a test compound thereto is measured.

[3] = system: rabbit duodenum tissue; experiment: Motilin agonist potency (tissue based assay), rabbit duodenum contractility; settings: Oryctolagus cuniculus, rabbit duodenum contraction
Experimental: The motilin agonist potency of compound I-b also was evaluated using a tissue based assay, using rabbit duodenum tissue-based contractility assay, generally following the procedure of Depoortere et al., J. Gastrointestinal Motility, 1, 150-159 (1989), the disclosure of which is incorporated herein by reference. Briefly, this method measures the ability of a compound to induce contractions in rabbit duodenal tissue, a tissue that responds to motilin.
Strips of rabbit duodenum were tested and qualified for use in the assay by as follows. Segments of rabbit duodenum, 20-30 cm distal to the pylorus were split longitudinally. The mucosa was removed and 2×2×15 mm strips of longitudinal smooth muscle were sliced from the segments. The strips were bathed in oxygenated Krebs solution at 37° C., with 1.5 g of tension, and contractions measured auxotonically. […] Qualified strips were mounted on the test apparatus.
Compound I-b was dissolved in dimethylsulfoxide (DMSO) to a final concentration of 10 mM. […]
The EC50 (concentration producing a half-maximal effect) was calculated as follows. The basal tension was subtracted from the compound-induced tension for each reading. […] Both R and Rmax are expressed as a fraction of the 1 μM carbachol contraction and range from 0 to 1. […]

[4] = system: S. pneumoniae; experiment: Antibacterial activity, MIC by serial dilutions on 96-well microtiter plates; assay type: cell-based; settings: for MIC: Streptococcus pneumoniae
[5] = molecular target: cytochrome P450 3A4 (Homo sapiens, UniProt P08684); experiment: Cytochrome P450 inhibition; assay type: in vitro ADME
Chain of cytochrome P450 3A4 (P08684 whole entry): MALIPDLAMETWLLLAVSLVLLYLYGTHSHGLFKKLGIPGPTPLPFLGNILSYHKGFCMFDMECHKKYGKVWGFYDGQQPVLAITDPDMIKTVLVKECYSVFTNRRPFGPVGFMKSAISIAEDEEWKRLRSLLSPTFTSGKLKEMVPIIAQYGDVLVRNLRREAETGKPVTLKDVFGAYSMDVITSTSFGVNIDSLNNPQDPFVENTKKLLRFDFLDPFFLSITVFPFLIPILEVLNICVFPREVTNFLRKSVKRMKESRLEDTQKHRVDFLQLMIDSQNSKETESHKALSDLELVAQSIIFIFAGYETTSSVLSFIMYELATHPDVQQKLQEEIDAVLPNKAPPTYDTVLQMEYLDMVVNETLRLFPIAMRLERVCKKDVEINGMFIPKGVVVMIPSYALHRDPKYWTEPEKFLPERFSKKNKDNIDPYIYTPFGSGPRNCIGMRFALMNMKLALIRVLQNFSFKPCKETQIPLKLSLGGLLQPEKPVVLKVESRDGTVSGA
Experimental: The inhibitory effect of compound I-b on cytochrome P450 3A4, the most abundant of the cytrochrome P450 enzymes responsible for the metabolism of many drugs, was determined, using a method based on Stresser et al., Drug Metabolism Disposition, 30 (7), 845-52. A strong inhibitory effect is undesirable, as indicative of a high probability of interference with other drugs.

[6] = system: rabbit duodenum strips; experiment: Chronic dosing tachyphylaxis model; settings: for % of the initial contraction after the fourth dose: dosed at EC90 at 0, 30, 60 and 90 min, response at 0 min set as 100%
Experimental: Rabbit duodenum strips were qualified as described above and dosed with test compound at its EC90 concentration. The contraction was recorded. When peak contractile force was reached, carbachol (1 μM) was added, and any further contraction was recorded. The resulting contraction is expressed as a fraction of the 1 μM carbachol contraction. The test compound and carbachol were washed away by changing the bath solution twice. The procedure was repeated at 30, 60, and 90 min following the initial dosing.

[7] = molecular target: hERG potassium channel (Homo sapiens, UniProt Q12809); experiment: in vitro; settings: human
Chain of hERG potassium channel (Q12809 whole entry): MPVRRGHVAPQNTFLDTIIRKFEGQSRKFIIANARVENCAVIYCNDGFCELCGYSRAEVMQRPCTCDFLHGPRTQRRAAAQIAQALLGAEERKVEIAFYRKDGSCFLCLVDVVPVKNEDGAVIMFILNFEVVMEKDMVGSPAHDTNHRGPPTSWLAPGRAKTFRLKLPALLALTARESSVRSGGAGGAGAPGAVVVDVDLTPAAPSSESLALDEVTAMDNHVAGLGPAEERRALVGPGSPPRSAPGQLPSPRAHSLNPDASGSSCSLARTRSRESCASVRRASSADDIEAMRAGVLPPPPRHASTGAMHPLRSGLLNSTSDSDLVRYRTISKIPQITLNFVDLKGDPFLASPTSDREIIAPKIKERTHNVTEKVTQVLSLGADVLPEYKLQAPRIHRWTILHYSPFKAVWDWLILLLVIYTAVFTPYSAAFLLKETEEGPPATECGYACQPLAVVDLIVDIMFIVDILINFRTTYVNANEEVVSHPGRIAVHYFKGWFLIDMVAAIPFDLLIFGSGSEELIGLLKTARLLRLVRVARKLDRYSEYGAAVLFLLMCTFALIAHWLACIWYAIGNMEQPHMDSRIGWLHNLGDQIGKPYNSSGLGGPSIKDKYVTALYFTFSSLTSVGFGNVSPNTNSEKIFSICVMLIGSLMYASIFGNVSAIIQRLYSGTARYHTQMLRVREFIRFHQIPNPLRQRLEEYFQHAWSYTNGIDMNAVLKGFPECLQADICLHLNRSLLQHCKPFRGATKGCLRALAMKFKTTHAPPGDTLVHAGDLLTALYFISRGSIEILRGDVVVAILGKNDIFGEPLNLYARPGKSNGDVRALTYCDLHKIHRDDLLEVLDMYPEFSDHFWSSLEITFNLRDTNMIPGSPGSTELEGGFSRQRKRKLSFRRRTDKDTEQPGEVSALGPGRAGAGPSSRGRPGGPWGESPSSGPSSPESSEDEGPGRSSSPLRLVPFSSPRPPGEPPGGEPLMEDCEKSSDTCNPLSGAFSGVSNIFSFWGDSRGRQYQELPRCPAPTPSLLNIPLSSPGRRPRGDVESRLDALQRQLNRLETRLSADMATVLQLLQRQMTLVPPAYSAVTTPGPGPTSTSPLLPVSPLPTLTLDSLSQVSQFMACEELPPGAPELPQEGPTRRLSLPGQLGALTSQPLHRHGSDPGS
Excerpt: (§1) Stanat et al., Mol. Cellular Biochem., 254, 1-7 (2003), “Characterization of the Inhibitory Effects of Erythromycin and Clarithromycin on the HERG Potassium Channel”.

[8] = molecular target: hERG (human ether-a-go-go related gene) potassium channel (Homo sapiens, UniProt Q12809); experiment: in vitro
Chain of hERG (human ether-a-go-go related gene) potassium channel (Q12809 whole entry): as above
Excerpt: as §1

T1 sequence (O43193 whole entry): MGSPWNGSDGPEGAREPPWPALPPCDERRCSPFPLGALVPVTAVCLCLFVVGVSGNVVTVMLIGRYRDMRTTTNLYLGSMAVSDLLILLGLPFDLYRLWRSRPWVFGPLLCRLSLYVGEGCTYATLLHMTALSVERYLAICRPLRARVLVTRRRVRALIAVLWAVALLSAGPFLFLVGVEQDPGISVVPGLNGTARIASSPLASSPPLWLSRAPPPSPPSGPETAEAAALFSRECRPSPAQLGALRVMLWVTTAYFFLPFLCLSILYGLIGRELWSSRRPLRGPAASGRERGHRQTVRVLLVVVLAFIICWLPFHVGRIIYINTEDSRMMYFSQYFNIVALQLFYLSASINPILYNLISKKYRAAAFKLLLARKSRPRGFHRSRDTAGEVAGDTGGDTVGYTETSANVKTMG

Structure (SMILES): CC[C@H]1OC(=O)[C@H](C)[C@@H](OC2C[C@@](C)(OC)C[C@H](C)O2)[C@H](C)[C@@H](OC2O[C@H](C)C[C@H](N(C)CC)[C@H]2O)[C@@]2(C)CC(C)=C(O2)[C@H](C)[C@@H](O)[C@H]1C (some centres unmarked) [ABT 229]
EC50 [1]: 40 nM

EC50 [2]: 1200 nM | EC90 ([3]; approximated as ten times EC50 and verified, read-out: EC90 (concentration producing 90% of the maximal effect)): 1800 nM | MIC ([4]; ATCC6301, S. pneumoniae strain ATCC 6301, read-out: Minimum Inhibitory Concentration (MIC)): 50 µg/mL (≈ 66.8 µM) | MIC ([4]; ATCC49619, S. pneumoniae strain ATCC 49619, read-out: Minimum Inhibitory Concentration (MIC)): 50 µg/mL (≈ 66.8 µM) | MIC ([4]; ATCC700671, S. pneumoniae strain ATCC 700671, read-out: Minimum Inhibitory Concentration (MIC)): > 200 µg/mL | Ki [5]: 9900 nM
Structure (SMILES): CC[C@H]1OC(=O)[C@H](C)[C@@H](O[C@H]2C[C@@](C)(OC)[C@@H](O)[C@H](C)O2)[C@H](C)[C@@H](O[C@@H]2O[C@H](C)C[C@H](N(C)C(C)C)[C@H]2O)C(C)(O)C[C@@H](C)C[C@H](C)[C@@H](O)[C@]1(C)O (some centres unmarked) [Compound I-b, N-Desmethyl-N-isopropyl-9-desoxoerythromycin A]
EC50 ([3]; normalized to 1 μM carbachol, read-out: EC50 (concentration producing a half-maximal effect)): 180 nM | antibacterial activity ([4]; erythromycin A sensitive strains of S. pneumoniae, in words): low antibacterial activity | tachyphylaxis effect (FIG. 1) ([6]; contractile responses at 0, 30, 60, 90 min, in words): distinctly less pronounced than that of ABT 229 | % of the initial contraction after the fourth dose [6]: 39±13% | inhibition at 10 µM [7]: 74% | inhibition at 30 µM [7]: 95%

Structure (SMILES): CCC(C)N(C)[C@H]1C[C@@H](C)O[C@@H](O[C@@H]2[C@@H](C)[C@H](O[C@H]3C[C@@](C)(OC)[C@@H](O)[C@H](C)O3)[C@@H](C)C(=O)O[C@H](CC)[C@@](C)(O)[C@H](O)[C@@H](C)C[C@H](C)CC2(C)O)[C@@H]1O (some centres unmarked) [Compound I-c, N-Desmethyl-N-sec-butyl-9-desoxoerythromycin A]
inhibition at 10 µM [7]: 26.5% | inhibition at 30 µM [7]: 70.3%

Structure (SMILES): CC[C@H]1OC(=O)[C@H](C)[C@@H](O[C@H]2C[C@@](C)(OC)[C@@H](O)[C@H](C)O2)[C@H](C)[C@@H](O[C@@H]2O[C@H](C)C[C@H](N(C)CC(C)C)[C@H]2O)C(C)(O)C[C@@H](C)C[C@H](C)[C@@H](O)[C@]1(C)O (some centres unmarked) [Compound I-d, N-Desmethyl-N-isobutyl-9-desoxoerythromycin A]
inhibition at 10 µM [7]: 33.1% | inhibition at 30 µM [7]: 71.4%

Structure (SMILES): CCC1OC(=O)C(C)C(OC2CC(C)(OC)C(O)C(C)O2)C(C)C(OC2OC(C)CC(N(C)CCO)C2O)C(C)(O)CC(C)CC(C)C(O)C1(C)O (centres unmarked) [Compound I-e, N-Desmethyl-N-(2-hydroxyethyl)-9-desoxoerythromycin A]
% of the initial contraction after the fourth dose [6]: 85±11% | Inhibition (%) at Specified Compound Concentration ([8]; 10 µM): 57.1% | Inhibition (%) at Specified Compound Concentration ([8]; 30 µM): 84.3%

Structure (SMILES): CC[C@H]1OC(=O)[C@H](C)[C@@H](O[C@H]2C[C@@](C)(OC)[C@@H](O)[C@H](C)O2)[C@H](C)[C@@H](O[C@@H]2O[C@H](C)C[C@H](N(C)C)[C@H]2O)[C@](C)(O)C[C@@H](C)C(=O)[C@H](C)[C@@H](O)[C@]1(C)O [Erythromycin A, reference compound]
MIC ([4]; ATCC6301, read-out: Minimum Inhibitory Concentration (MIC)): 0.025 µg/mL (≈ 0.0341 µM) | MIC ([4]; ATCC49619, read-out: Minimum Inhibitory Concentration (MIC)): 0.049 µg/mL (≈ 0.0668 µM) | MIC ([4]; ATCC700671, read-out: Minimum Inhibitory Concentration (MIC)): 0.049 µg/mL (≈ 0.0668 µM)
